From patent publication US11033604B2, “Reagents and methods for treating bacterial infection” (priority 2018, dated 2021)
Non-standard residues stand in square brackets, D forms with d. No end group written: not given here.

What was measured:
[1] = target: T1, FapC (Pseudomonas aeruginosa, UniProt Q9I2F0); assay: FapC in vitro ThT aggregation assay; type: biochemical, P. aeruginosa; conditions: 0.2 mg/mL FapC, 37° C.
T1 sequence (Q9I2F0 25-340): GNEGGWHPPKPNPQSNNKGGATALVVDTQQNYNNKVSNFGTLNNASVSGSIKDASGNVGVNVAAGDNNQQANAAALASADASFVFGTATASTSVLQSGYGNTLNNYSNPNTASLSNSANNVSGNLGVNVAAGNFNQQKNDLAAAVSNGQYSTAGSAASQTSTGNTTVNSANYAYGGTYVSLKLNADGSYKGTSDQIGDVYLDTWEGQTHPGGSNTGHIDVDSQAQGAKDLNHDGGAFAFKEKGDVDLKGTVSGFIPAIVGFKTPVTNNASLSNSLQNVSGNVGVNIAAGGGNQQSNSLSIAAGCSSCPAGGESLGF
Description: FIG. 15. Action of synthetic α-sheet peptides in the P. aeruginosa system. […] Error bars indicate standard deviation of the mean of at least three replicates. Significance values are p<0.05: *, p<0.01: **, p<0.001: ***.
Samples are aliquoted into 96 well plates and incubated in a plate reader at 37° C. with shaking every 5 min. As previously, the fluorescence of ThT monitors protein fibril formation in real time. Synthetic α-sheet peptides may also be added to the reaction to determine whether they inhibit FapC fibril formation, as in the case of AP90 (FIG. 15A).

[2] = system: Streptococcus mutans (SM); assay: Crystal violet biofilm assay; type: cell-based
Source text: (§1) Furthermore, these same inhibitors are active against EC, SE, and SM.

[3] = system: Staphylococcus epidermidis (SE); assay: Crystal violet biofilm assay; type: cell-based
Source text: as §1

[4] = system: Pseudomonas aeruginosa (PA); assay: Crystal violet biofilm assay; type: cell-based
Source text: as §1

[5] = system: Escherichia coli (EC); assay: Crystal violet biofilm assay; type: cell-based
Source text: as §1

[6] = system: bacterial biofilm on glass disks; assay: Biofilm formation on α-sheet peptide coated glass disk; type: cell-based; conditions: polydopamine-grafted peptide, FIG. 17 (dimeric AP193)
Source text: FIG. 17. Bacterial adherence and growth of biofilm on glass disks and decreased adhesion of bacteria (GFP signal) and biofilm and amyloid formation (Brightfield image) when glass is coated with α-sheet peptides, shown for dimeric AP193. This is a model for biofilm formation on implanted devices such as prosthetic joints.
We have conjugated α-sheet peptides to other functional molecules to enhance their efficacy at the site of biofilm infection, i.e., the surface of biomedical implants. To this end, we used a polydopamine (PDA) coating approach to facilitate attachment of α-sheet peptides to biomedical implant materials. […]
For α-sheet peptide grafting, 0.5 mg/mL peptide (e.g. AP90, AP193, or P1 as a control) was dissolved in 10 mM Tris pH 8.0 and then applied to PDA-coated substrates for overnight reaction (18 hours). […] First, the concentration of peptide remaining in solution after conjugation was measured by NanoOrange™ assay to determine coupling efficiency and surface density. Second, accessibility of α-sheet peptides on the surface was determined by immunofluorescence; PGPMs were blocked with 5% BSA solution for 12 h, incubated with AlexaFluor®568-conjugated Pac53 antibody (which recognizes α-sheet peptides), and then washed and imaged on a fluorescent microscope to ensure attachment to the disks. […]

[7] = system: csgA expression; assay: RT-qPCR of csgA expression in biofilms; type: cell-based, E. coli; conditions: biofilms grown with peptide vs peptide-free controls
Source text: (§2) UTI89 biofilms were also cultivated in the presence of an unstructured peptide, P1, which retains a mixture of L- and D-amino acids but lacks the α-sheet secondary structure of AP193.

[8] = system: UTI89 ΔcsgA biofilms; assay: In situ ThT assay in UTI89 ΔcsgA knockout biofilms; type: cell-based, E. coli; conditions: UTI89 ΔcsgA knockout strain
Description: FIG. 12. […] Error bars indicate standard deviation of the mean of at least three replicates. Significance values are p<0.05: *, p<0.01: **, p<0.001: ***.
Biofilms of the cystitis E. coli isolate UTI89 were cultivated in YESCA broth with 4% DMSO at 26° C., conditions which are known to elicit increased curli biogenesis. Varying doses of the dimeric α-sheet peptide, AP193, were also added to the cultures at the time of inoculation. AP193 is covalently linked through a single cysteine in each of its constituent monomers. Since DMSO was already present in the biofilm growth medium, AP193 stocks were supplemented with 4% DMSO to improve solubility, and the buffer solution was maintained at high pH (sodium carbonate, pH 9.6) to retain oxidation of the disulfide bond. After 48 hours of growth, biofilms were washed, homogenized, and stained with ThT.
as §2

Substance | FapC fibril formation (ThT) [1] | Activity against biofilm-forming bacteria (crystal violet) [2] | Activity against biofilm-forming bacteria (crystal violet) [3] | Biofilm inhibition (crystal violet, FIG. 10) [4] | Activity against biofilm-forming bacteria (crystal violet) [5] | Amount of bacterial biofilm on peptide-coated glass disk [6] | csgA expression (RT-qPCR) [7] | ThT fluorescence of biofilm [8]
RGEmNlSwMNEYSGWtMnLkMGR (RGEMNLSWMNEYSGWTMNLKMGR; not fully specified (residues 4, 6, 8, 16, 18, 20); printed as RGEmNlSwMNEYSGWtMnLkMGR) [AP90] | inhibits fibril formation | active | active | inhibition | active | – | – | –
RGEmNyFwMNEYYGWtMnCkMGR (RGE[dM]N[dY]F[dW]MNEYYGW[dT]M[dN]C[dK]MGR) [AP193, hydrophobic AP90 derivative, variant to support different chemical coupling reactions] | – | – | – | – | – | dramatic drop in the amount of bacterial biofilm | did not reveal any significant changes in csgA expression | no significant changes
